What was measured:
Experiment in all cases: relative viability (nuclei count vs DMSO), 5 days (fraction); higher = more cells survive
201T = system: 201T
Outline: (§1)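 Five library-drug doses in √10 steps were combined with a fixed anchor-drug dose, or a single drug was given alone, by pin tool to lung cancer cell lines in 1536-well plates the day after seeding. Nuclei were stained and counted after 5 days. Relative viability is the nuclei count in treated wells over that in vehicle wells, taken as the median of duplicate plates.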

BEN = system: BEN
Outline: as §1

COR-L 105 = system: COR-L 105
Outline: as §1

EMC-BAC-2 = system: EMC-BAC-2
Outline: as §1

H3255 = system: H3255
Outline: as §1

HARA = system: HARA
Outline: as §1

HCC-78 = system: HCC-78
Outline: as §1

HOP-62 = system: HOP-62
Outline: as §1

LC-2-ad = system: LC-2-ad
Outline: as §1

LOU-NH91 = system: LOU-NH91
Outline: as §1

LU99A = system: LU99A
Outline: as §1

LXF-289 = system: LXF-289
Outline: as §1

NCI-H1395 = system: NCI-H1395
Outline: as §1

NCI-H1563 = system: NCI-H1563
Outline: as §1

NCI-H1993 = system: NCI-H1993
Outline: as §1

NCI-H2087 = system: NCI-H2087
Outline: as §1

NCI-H2126 = system: NCI-H2126
Outline: as §1

NCI-H2170 = system: NCI-H2170
Outline: as §1

NCI-H650 = system: NCI-H650
Outline: as §1

RERF-LC-KJ = system: RERF-LC-KJ
Outline: as §1

SK-MES-1 = system: SK-MES-1
Outline: as §1

SW 900 = system: SW 900
Outline: as §1

UMC-11 = system: UMC-11
Outline: as §1

CCNC(=O)c1noc(-c2cc(C(C)C)c(O)cc2O)c1-c1ccc(CN2CCOCC2)cc1 [Luminespib] + Nc1nc2[nH]cc(CCc3ccc(C(=O)N[C@@H](CCC(=O)O)C(=O)O)cc3)c2c(=O)[nH]1 [Pemetrexed] (partner 0.2 µM)
relative viability (201T; first compound 0.002 µM): 0.333 | relative viability (201T; first compound 0.006325 µM): 0.311 | relative viability (201T; first compound 0.02 µM): 0.346 | relative viability (201T; first compound 0.06325 µM): 0.359 | relative viability (201T; first compound 0.2 µM): 0.206 | relative viability (BEN; first compound 0.002 µM): 0.805 | relative viability (BEN; first compound 0.006325 µM): 0.584 | relative viability (BEN; first compound 0.02 µM): 0.463 | relative viability (BEN; first compound 0.06325 µM): 0.5 | relative viability (BEN; first compound 0.2 µM): 0.252 | relative viability (COR-L 105; first compound 0.002 µM): 1.11 | relative viability (COR-L 105; first compound 0.006325 µM): 0.952 | relative viability (COR-L 105; first compound 0.02 µM): 1.18 | relative viability (COR-L 105; first compound 0.06325 µM): 0.593 | relative viability (COR-L 105; first compound 0.2 µM): 0.24 | relative viability (EMC-BAC-2; first compound 0.002 µM): 0.467 | relative viability (EMC-BAC-2; first compound 0.006325 µM): 0.287 | relative viability (EMC-BAC-2; first compound 0.02 µM): 0.573 | relative viability (EMC-BAC-2; first compound 0.06325 µM): 0.383 | relative viability (EMC-BAC-2; first compound 0.2 µM): 0.444 | relative viability (H3255; first compound 0.002 µM): 0.579 | relative viability (H3255; first compound 0.006325 µM): 0.497 | relative viability (H3255; first compound 0.02 µM): 0.529 | relative viability (H3255; first compound 0.06325 µM): 0.536 | relative viability (H3255; first compound 0.2 µM): 0.335 | relative viability (HARA; first compound 0.002 µM): 0.253 | relative viability (HARA; first compound 0.006325 µM): 0.24 | relative viability (HARA; first compound 0.02 µM): 0.273 | relative viability (HARA; first compound 0.06325 µM): 0.172 | relative viability (HARA; first compound 0.2 µM): 0.135 | relative viability (HCC-78; first compound 0.002 µM): 0.885 | relative viability (HCC-78; first compound 0.006325 µM): 0.864 | relative viability (HCC-78; first compound 0.02 µM): 0.97 | relative viability (HCC-78; first compound 0.06325 µM): 0.87 | relative viability (HCC-78; first compound 0.2 µM): 0.858 | relative viability (HOP-62; first compound 0.002 µM): 0.314 | relative viability (HOP-62; first compound 0.006325 µM): 0.4 | relative viability (HOP-62; first compound 0.02 µM): 0.34 | relative viability (HOP-62; first compound 0.06325 µM): 0.156 | relative viability (HOP-62; first compound 0.2 µM): 0.125 | relative viability (LC-2-ad; first compound 0.002 µM): 0.251 | relative viability (LC-2-ad; first compound 0.006325 µM): 0.298 | relative viability (LC-2-ad; first compound 0.02 µM): 0.26 | relative viability (LC-2-ad; first compound 0.06325 µM): 0.213 | relative viability (LC-2-ad; first compound 0.2 µM): 0.205 | relative viability (LOU-NH91; first compound 0.002 µM): 0.426 | relative viability (LOU-NH91; first compound 0.006325 µM): 0.36 | relative viability (LOU-NH91; first compound 0.02 µM): 0.539 | relative viability (LOU-NH91; first compound 0.06325 µM): 0.339 | relative viability (LOU-NH91; first compound 0.2 µM): 0.324 | relative viability (LU99A; first compound 0.002 µM): 0.192 | relative viability (LU99A; first compound 0.006325 µM): 0.198 | relative viability (LU99A; first compound 0.02 µM): 0.177 | relative viability (LU99A; first compound 0.06325 µM): 0.168 | relative viability (LU99A; first compound 0.2 µM): 0.127 | relative viability (LXF-289; first compound 0.002 µM): 0.91 | relative viability (LXF-289; first compound 0.006325 µM): 0.915 | relative viability (LXF-289; first compound 0.02 µM): 1.09 | relative viability (LXF-289; first compound 0.06325 µM): 0.333 | relative viability (LXF-289; first compound 0.2 µM): 0.136 | relative viability (NCI-H1395; first compound 0.002 µM): 0.875 | relative viability (NCI-H1395; first compound 0.006325 µM): 0.812 | relative viability (NCI-H1395; first compound 0.02 µM): 0.699 | relative viability (NCI-H1395; first compound 0.06325 µM): 0.299 | relative viability (NCI-H1395; first compound 0.2 µM): 0.353 | relative viability (NCI-H1563; first compound 0.002 µM): 0.808 | relative viability (NCI-H1563; first compound 0.006325 µM): 0.599 | relative viability (NCI-H1563; first compound 0.02 µM): 0.668 | relative viability (NCI-H1563; first compound 0.06325 µM): 0.402 | relative viability (NCI-H1563; first compound 0.2 µM): 0.41 | relative viability (NCI-H1993; first compound 0.002 µM): 0.566 | relative viability (NCI-H1993; first compound 0.006325 µM): 0.577 | relative viability (NCI-H1993; first compound 0.02 µM): 0.557 | relative viability (NCI-H1993; first compound 0.06325 µM): 0.284 | relative viability (NCI-H1993; first compound 0.2 µM): 0.367 | relative viability (NCI-H2087; first compound 0.002 µM): 0.708 | relative viability (NCI-H2087; first compound 0.006325 µM): 0.627 | relative viability (NCI-H2087; first compound 0.02 µM): 0.639 | relative viability (NCI-H2087; first compound 0.06325 µM): 0.152 | relative viability (NCI-H2087; first compound 0.2 µM): 0.133 | relative viability (NCI-H2126; first compound 0.002 µM): 0.705 | relative viability (NCI-H2126; first compound 0.006325 µM): 0.626 | relative viability (NCI-H2126; first compound 0.06325 µM): 0.479 | relative viability (NCI-H2126; first compound 0.2 µM): 0.181 | relative viability (NCI-H2170; first compound 0.002 µM): 0.291 | relative viability (NCI-H2170; first compound 0.006325 µM): 0.267 | relative viability (NCI-H2170; first compound 0.06325 µM): 0.219 | relative viability (NCI-H2170; first compound 0.2 µM): 0.141 | relative viability (NCI-H650; first compound 0.002 µM): 0.925 | relative viability (NCI-H650; first compound 0.006325 µM): 0.983 | relative viability (NCI-H650; first compound 0.02 µM): 0.625 | relative viability (NCI-H650; first compound 0.06325 µM): 0.257 | relative viability (NCI-H650; first compound 0.2 µM): 0.113 | relative viability (RERF-LC-KJ; first compound 0.002 µM): 0.474 | relative viability (RERF-LC-KJ; first compound 0.006325 µM): 0.449 | relative viability (RERF-LC-KJ; first compound 0.02 µM): 0.462 | relative viability (RERF-LC-KJ; first compound 0.06325 µM): 0.287 | relative viability (RERF-LC-KJ; first compound 0.2 µM): 0.219 | relative viability (SK-MES-1; first compound 0.002 µM): 0.962 | relative viability (SK-MES-1; first compound 0.006325 µM): 0.877 | relative viability (SK-MES-1; first compound 0.02 µM): 0.517 | relative viability (SK-MES-1; first compound 0.06325 µM): 0.153 | relative viability (SK-MES-1; first compound 0.2 µM): 0.177 | relative viability (SW 900; first compound 0.002 µM): 0.492 | relative viability (SW 900; first compound 0.006325 µM): 0.512 | relative viability (SW 900; first compound 0.02 µM): 0.427 | relative viability (SW 900; first compound 0.06325 µM): 0.133 | relative viability (SW 900; first compound 0.2 µM): 0.146 | relative viability (UMC-11; first compound 0.002 µM): 0.737 | relative viability (UMC-11; first compound 0.006325 µM): 0.843 | relative viability (UMC-11; first compound 0.02 µM): 0.762 | relative viability (UMC-11; first compound 0.06325 µM): 0.322 | relative viability (UMC-11; first compound 0.2 µM): 0.161

— the supplement of paper PMC10307832
